Data as given in paper PMC8196580, “Identification of Kaurane-Type Diterpenes as Inhibitors of Leishmania Pteridine Reductase I” (Molecules, 2021).
Where two headings read alike, the source gives them in different places.

Legend:
L. major [1] = test system: L. major; set-up: method as in ChEMBL; conditions: ref ChEMBL, cited from earlier work
L. major [2] = test: ChEMBL dataset of pIC50 values against L. major used for the RF model (Table S1); format: cell-based, Leishmania major; further: call rule not given here
Text: From the ChEMBL database (https://www.ebi.ac.uk/chembl/, accessed on 10 January 2021), we selected a diverse set of 1085 structures that were initially classified according to their predicted activity against L. major.
Excluding these structures minimized the differences in activity values resulting from errors and differences in experimental protocols. […] Standardizer software [JChem, version 16.11.28 (2016), calculation module developed by ChemAxon, https://www.chemaxon.com/, accessed on 20 January 2021] was used to canonize all simplified molecular-input line-entry system (SMILES) codes. After duplicate structures were removed, those with higher pIC50 values were eliminated, facilitating the generation of more restrictive models.

[3] = ChemBL structures with pIC50 values used for Random forest model construction, L. major
[4] = Active/Inactive class assigned to the ChEMBL pIC50 value for Random forest model construction, ref ChEMBL
[5] = ChemBL structures with pIC50 values used for Random forest model construction (Table S1)
[6] = Active/Inactive class assigned to ChemBL structures for Random forest model construction (Table S1)

SMILES | pIC50 Value (L. major [1]; [3]) | Outcome (L. major [2]; [4]) | pIC50 Value (L. major [1]; [5]) | Outcome (L. major [2]; [6])
O=[N+]([O-])c1ccc(-c2nnc(N3CCOCC3)s2)s1 [CHEMBL195645] | 4.97 | Inactive | – | –
O=[N+]([O-])c1ccc(-c2nnc(N3CCNCC3)s2)o1 [CHEMBL195646] | 5.05 | Active | – | –
c1csc(-c2nc3ccccc3[nH]2)c1 [CHEMBL201221] | – | – | 5.51 | Active
O=[N+]([O-])c1ccccc1-c1nc2ccccc2[nH]1 [CHEMBL209918] | – | – | 5.54 | Active
COc1c2c(cc(O)c1-c1c(C)cc3cccc(OC)c3c1O)C[C@H](C)N=C2C [CHEMBL221884] | 4.48 | Inactive | – | –
COc1cc(C)c(-c2ccc3cc(C)nc(C)c3c2O)c2cccc(O)c12 [CHEMBL222221] | 4.49 | Inactive | – | –
Cc1cc2ccc(-c3c(C)cc(O)c4c(O)cccc34)c(O)c2c(C)n1 [CHEMBL222338] | 4.00 | Inactive | – | –
COc1cc2c(c(OC)c1)C(C)=[N+](c1ccc(OC)c3c(OC)cc(C)cc13)[C@@H](C)C2.O=C([O-])C(F)(F)F [CHEMBL222358] | – | – | 5.31 | Active
COc1cc2c(c(OC)c1-c1c(C)cc3cccc(OC)c3c1O)C(C)=N[C@@H](C)C2 [CHEMBL222436] | 4.00 | Inactive | – | –
COc1cc(CO)c(-c2ccc3c(c2O)[C@@H](C)N[C@H](C)C3)c2cccc(O)c12 [CHEMBL222805] | 4.00 | Inactive | – | –
COc1ccc(-c2ccc3cc(C)nc(C)c3c2O)c2cc(C)cc(OC)c12 [CHEMBL224952] | 4.00 | Inactive | – | –
CCOC(=O)C1=C(C)NC(=S)NC1c1cccc(O)c1 (stereo not shown) [CHEMBL236789] | – | – | 5.65 | Active
CC(=O)CCCCCCCCCCCC[C@H]1CC[C@@H](O)[C@@H](C)N1 [CHEMBL249464] | 4.12 | Inactive | – | –
COC(=O)C1=C(C)NC(C)=C(C(=O)OC(C)(C)CN(C)CCC(c2ccccc2)c2ccccc2)C1c1cccc([N+](=O)[O-])c1 (stereo not shown) [CHEMBL250270] | 4.94 | Inactive | – | –
C=CCOc1ccc(C(=O)/C=C/c2ccc(OC)cc2OC)cc1 [CHEMBL253672] | – | – | 5.40 | Active
CC1=CCC[C@@]2(C)CC3=C(C[C@@H]12)C(=O)C=CC3=O [CHEMBL255103] | 4.77 | Inactive | – | –
CC1=C2C(=O)c3c(O)ccc(O)c3CC2(C)CCC1=O (stereo not shown) [CHEMBL255104] | 3.52 | Inactive | – | –
CC1(O)CCCC2(C)Cc3c(O)ccc(O)c3CC12 (stereo not shown) [CHEMBL255315] | 4.99 | Inactive | – | –
C/C(C=O)=C\CCC(C)(O)/C=C\c1cc(O)ccc1O (stereo not shown) [CHEMBL255316] | 4.04 | Inactive | – | –
CC1=C2C(=O)c3c(OC(=O)c4ccc(Br)cc4)ccc(OC(=O)c4ccc(Br)cc4)c3CC2(C)CCC1=O (stereo not shown) [CHEMBL255868] | 4.43 | Inactive | – | –
CC(=O)Oc1ccc(OC(C)=O)c2c1CC1(C)CCC(=O)C(C)=C1C2=O (stereo not shown) [CHEMBL255869] | 3.65 | Inactive | – | –
C=C[C@@]1(C)CC2=C(C[C@H]1C(=C)C)C(O)C=CC2O (stereo partly shown) [CHEMBL257133] | 4.74 | Inactive | – | –
C/C(C=O)=C\CC/C(C)=C/Cc1cc(O)ccc1O [CHEMBL257343] | 4.57 | Inactive | – | –
C[C@@H]1[C@H](O)[C@@H](C)/C=C/C=C/C=C/C=C/C=C/C=C/C=C/[C@H](O[C@@H]2O[C@H](C)[C@@H](O)[C@H](N)[C@@H]2O)C[C@@H]2O[C@](O)(C[C@@H](O)C[C@@H](O)[C@H](O)CC[C@@H](O)C[C@@H](O)CC(=O)O[C@H]1C)C[C@H](O)[C@H]2C(=O)O [CHEMBL267345] | 3.27 | Inactive | – | –
C[C@@H]1CC[C@H]2[C@@H](C)C(=O)O[C@@H]3O[C@@]4(C)CC[C@@H]1[C@]32OO4 [CHEMBL269671] | – | – | 6.12 | Active

SMILES | pIC50 Value (L. major [1]; [3]) | Outcome (L. major [2]; [4]) | pIC50 Value (L. major [1]; [5]) | Outcome (L. major [2]; [6])
Nc1ccc(Nc2c3ccccc3nc3ccccc23)cc1 [CHEMBL289352] | – | – | 5.68 | Active
O=C(CCl)N1c2ccccc2Sc2ccc(Cl)cc21 [CHEMBL290253] | 4.98 | Inactive | – | –
CN(C)Cc1ccc(Nc2c3ccccc3nc3ccccc23)cc1 [CHEMBL290441] | – | – | 6.00 | Active
CCCCCCNc1ccc(Nc2c3ccccc3nc3ccccc23)cc1 [CHEMBL299581] | – | – | 6.26 | Active
CCCCN(CCCC)c1ccc(Nc2c3ccccc3nc3ccccc23)cc1 [CHEMBL312941] | – | – | 6.46 | Active
CCCCCCN(C)c1ccc(Nc2c3ccc(Cl)cc3nc3ccc(OC)cc23)cc1 [CHEMBL315133] | – | – | 5.74 | Active
CCN(CC)c1ccc(Nc2c3ccccc3nc3ccccc23)cc1 [CHEMBL315530] | – | – | 6.40 | Active
CCCCCCCc1ccc(Nc2c3ccccc3nc3ccccc23)cc1 [CHEMBL316058] | – | – | 6.10 | Active
O=[N+]([O-])c1ccc2ncnc(Nc3cccc(Br)c3)c2c1 [CHEMBL329161] | 5.04 | Active | – | –
CN(C)c1ccc(Nc2c3ccc(NC(=O)CCN4CCCC4)cc3nc3cc(NC(=O)CCN4CCCC4)ccc23)cc1 [CHEMBL336434] | 4.90 | Inactive | – | –
O=[N+]([O-])c1ccc(-c2nnc(N3CCOCC3)s2)o1 [CHEMBL365770] | 5.28 | Active | – | –
NC[C@@H]1O[C@H](O[C@H]2[C@@H](O)[C@H](O[C@@H]3[C@@H](O)[C@H](N)C[C@H](N)[C@H]3O[C@H]3O[C@H](CO)[C@@H](O)[C@H](O)[C@H]3N)O[C@@H]2CO)[C@H](N)[C@@H](O)[C@@H]1O [CHEMBL370143] | 4.00 | Inactive | – | –
CN1CCN(c2nnc(-c3ccc([N+](=O)[O-])s3)s2)CC1 [CHEMBL371217] | 3.99 | Inactive | – | –
CN1CCN(c2nnc(-c3ccc([N+](=O)[O-])o3)s2)CC1 [CHEMBL372024] | 5.14 | Active | – | –
O=[N+]([O-])c1ccc(-c2nnc(N3CCCCC3)s2)o1 [CHEMBL372172] | – | – | 5.49 | Active
COc1cc(C)c(-c2ccc(O)c3c2C[C@@H](C)N[C@@H]3C)c2cccc(O)c12 [CHEMBL375542] | 4.44 | Inactive | – | –
Oc1ccc(-c2nc3ccccc3[nH]2)cc1 [CHEMBL377740] | – | – | 5.36 | Active
COc1ccc(-c2nc3ccccc3[nH]2)cc1 [CHEMBL379179] | – | – | 5.44 | Active
c1ccc2[nH]c(-c3ccncc3)nc2c1 [CHEMBL379376] | – | – | 5.35 | Active
O=[N+]([O-])c1ccc2nc(-c3ccccn3)[nH]c2c1 [CHEMBL380979] | – | – | 5.52 | Active
O=[N+]([O-])c1ccc(-c2nnc(N3CCN(c4ccccc4)CC3)s2)s1 [CHEMBL382933] | 3.98 | Inactive | – | –
COc1cc(OC)c(-c2ccc(OC)c3c(OC)cc(C)cc23)c2c1C(C)=N[C@@H](C)C2 [CHEMBL390586] | 4.00 | Inactive | – | –
CC(C)(C)OC(=O)N1CCN(c2cc(-c3ccc(Oc4ccccc4)cc3)n[nH]2)CC1 [CHEMBL394241] | 4.89 | Inactive | – | –
C=C[C@@]1(C)CC2=C(C[C@H]1C(=C)C)C(=O)C=CC2=O [CHEMBL401583] | 4.06 | Inactive | – | –
C=C1CCC[C@@]2(C)CC3=C(C[C@@H]12)C(=O)C=CC3=O [CHEMBL401659] | 4.99 | Inactive | – | –
